Assay results published in the supplement of paper PMC11061612.

How the values were obtained:
[1] = system: TE-4 (Esophageal Squamous Cell Carcinoma); assay: combination Emax (second highest fraction inhibited in the dose matrix, 72 h); higher = more inhibition; extreme values may be limits of the assay
How it was run: (§1)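 Bliss excess equals the observed combination effect minus the expected value EA + EB − EA·EB, where EA and EB are the effects of each agent alone. Combination Emax is the second-highest inhibition within the matrix. Inhibition was scaled from CellTiter-Glo 2.0 luminescence, with 0 set by vehicle wells and 1 by blank wells, after 72 hours of two-drug dosing of cells plated in 1536-well plates.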

[2] = system: COLO-829 (Melanoma); assay: as above
How it was run: as §1

[3] = system: CAL-51 (Breast Carcinoma); assay: as above
How it was run: as §1

[4] = system: OVCAR-8 (Ovarian Carcinoma); assay: as above
How it was run: as §1

[5] = system: HCC-15 (Squamous Cell Lung Carcinoma); assay: as above
How it was run: as §1

[6] = system: NCI-H747 (Colorectal Carcinoma); assay: as above
How it was run: as §1

[7] = system: KYSE-410 (Esophageal Squamous Cell Carcinoma); assay: as above
How it was run: as §1

[8] = system: UMC-11 (Other Solid Carcinomas); assay: as above
How it was run: as §1

[9] = system: LB771-HNC (Head and Neck Carcinoma); assay: as above
How it was run: as §1

[10] = system: 639-V (Bladder Carcinoma); assay: as above
How it was run: as §1

[11] = system: KARPAS-231 (B-Cell Non-Hodgkin's Lymphoma); assay: as above
How it was run: as §1

[12] = system: SW626 (Colorectal Carcinoma); assay: as above
How it was run: as §1

[13] = system: MHH-PREB-1 (B-Cell Non-Hodgkin's Lymphoma); assay: as above
How it was run: as §1

[14] = system: TE-4 (Esophageal Squamous Cell Carcinoma); assay: Bliss excess, mean over the matrix (fraction); higher = more synergy
How it was run: as §1

[15] = system: COLO-829 (Melanoma); assay: as above
How it was run: as §1

[16] = system: CAL-51 (Breast Carcinoma); assay: as above
How it was run: as §1

[17] = system: OVCAR-8 (Ovarian Carcinoma); assay: as above
How it was run: as §1

[18] = system: HCC-15 (Squamous Cell Lung Carcinoma); assay: as above
How it was run: as §1

[19] = system: NCI-H747 (Colorectal Carcinoma); assay: as above
How it was run: as §1

[20] = system: KYSE-410 (Esophageal Squamous Cell Carcinoma); assay: as above
How it was run: as §1

[21] = system: UMC-11 (Other Solid Carcinomas); assay: as above
How it was run: as §1

[22] = system: LB771-HNC (Head and Neck Carcinoma); assay: as above
How it was run: as §1

[23] = system: 639-V (Bladder Carcinoma); assay: as above
How it was run: as §1

[24] = system: KARPAS-231 (B-Cell Non-Hodgkin's Lymphoma); assay: as above
How it was run: as §1

[25] = system: SW626 (Colorectal Carcinoma); assay: as above
How it was run: as §1

[26] = system: MHH-PREB-1 (B-Cell Non-Hodgkin's Lymphoma); assay: as above
How it was run: as §1

With `COc1nnc2ccc(N3CCC(c4ccc(OCCN5CCN(C)C(=O)[C@H]5C)cc4)CC3)nn12` [AZD5153] + CN(CC[C@H](CSC1=CC=CC=C1)NC2=C(C=C(C=C2)S(=O)(=O)NC(=O)C3=CC=C(C=C3)N4CCC(CC4)[C@H](C5=CC=CC=C5C6=CC=C(C=C6)Cl)O)S(=O)(=O)C(F)(F)F)CCO [AZD4320] (first compound max 1 µM, 7x7, partner max 1 µM) the “combination Emax” value [1] was 0.336, the “combination Emax” value [2] was 0.143 and the “combination Emax” value [3] was 0.843. For the same molecule, the “combination Emax” value [4] was 0.733, the “combination Emax” value [5] was 0.994 and the “combination Emax” value [6] was 0.728. The “combination Emax” value [7] was 0.259, the “combination Emax” value [8] was 0.848 and the “combination Emax” value [9] was 0.524. The “combination Emax” value [10] was 0.606, the “combination Emax” value [11] was 1 and the “combination Emax” value [12] was 0.777. The “combination Emax” value [13] was 0.47, the Bliss excess [14] was 0.0449 and the Bliss excess [15] was -0.0466. For the same molecule, the Bliss excess [16] was 0.0267, the Bliss excess [17] was 0.0081 and the Bliss excess [18] was -0.0023. It also gave a Bliss excess [19] of -0.0055, a Bliss excess [20] of 0.0046 and a Bliss excess [21] of 0.0086. For the same molecule, the Bliss excess [22] was 0.0273, the Bliss excess [23] was 0.034 and the Bliss excess [24] was -0.159. For the same molecule, the Bliss excess [25] was 0.0477 and the Bliss excess [26] was 0.0343.

`C[C@@H](c1ccc2nccn2c1)n1nnc2ncc(-c3cnn(C)c3)nc21` [Savolitinib] + CN(CC[C@H](CSC1=CC=CC=C1)NC2=C(C=C(C=C2)S(=O)(=O)NC(=O)C3=CC=C(C=C3)N4CCC(CC4)[C@H](C5=CC=CC=C5C6=CC=C(C=C6)Cl)O)S(=O)(=O)C(F)(F)F)CCO [AZD4320] (first compound max 1 µM, 7x7, partner max 1 µM) was tested, and the “combination Emax” value [1] was 0.145, the “combination Emax” value [2] was 0.278 and the “combination Emax” value [3] was 0.207. The “combination Emax” value [4] was 0.0738, the “combination Emax” value [5] was 0.916 and the “combination Emax” value [6] was 0.208. For the same molecule, the “combination Emax” value [7] was 0.174, the “combination Emax” value [8] was 0.401 and the “combination Emax” value [9] was 0.154. The “combination Emax” value [10] was 0.172, the “combination Emax” value [11] was 0.907 and the “combination Emax” value [12] was 0.582. For the same molecule, the “combination Emax” value [13] was 0.139, the Bliss excess [14] was -0.0244 and the Bliss excess [15] was -0.0397. The Bliss excess [16] was -0.0375, the Bliss excess [17] was -0.0373 and the Bliss excess [18] was -0.0203. The Bliss excess [19] was -0.0808, the Bliss excess [20] was -0.0588 and the Bliss excess [21] was 0.0211. It also gave a Bliss excess [22] of -0.042, a Bliss excess [23] of -0.0957 and a Bliss excess [24] of -0.0299. The Bliss excess [25] was -0.108 and the Bliss excess [26] was -0.0481.

`CC(=O)c1c(C)c2cnc(Nc3ccc(N4CCNCC4)cn3)nc2n(C2CCCC2)c1=O` [Palbociclib] + CN(CC[C@H](CSC1=CC=CC=C1)NC2=C(C=C(C=C2)S(=O)(=O)NC(=O)C3=CC=C(C=C3)N4CCC(CC4)[C@H](C5=CC=CC=C5C6=CC=C(C=C6)Cl)O)S(=O)(=O)C(F)(F)F)CCO [AZD4320] (first compound max 10 µM, 7x7, partner max 1 µM) was tested, and the “combination Emax” value [1] was 0.341, the “combination Emax” value [2] was 0.33 and the “combination Emax” value [3] was 0.479. For the same molecule, the “combination Emax” value [4] was 0.173, the “combination Emax” value [5] was 0.982 and the “combination Emax” value [6] was 0.555. For the same molecule, the “combination Emax” value [7] was 0.41, the “combination Emax” value [8] was 0.631 and the “combination Emax” value [9] was 0.206. For the same molecule, the “combination Emax” value [10] was 0.198, the “combination Emax” value [11] was 0.98 and the “combination Emax” value [12] was 0.662. For the same molecule, the “combination Emax” value [13] was 0.492, the Bliss excess [14] was 0.001 and the Bliss excess [15] was -0.117. The Bliss excess [16] was -0.123, the Bliss excess [17] was -0.0261 and the Bliss excess [18] was -0.0553. For the same molecule, the Bliss excess [19] was -0.0425, the Bliss excess [20] was -0.0667 and the Bliss excess [21] was 0.0057. The Bliss excess [22] was -0.0584, the Bliss excess [23] was -0.124 and the Bliss excess [24] was -0.0645. It also gave a Bliss excess [25] of -0.0921 and a Bliss excess [26] of -0.041.
